Data set [1] is described as follows: Inhibition of phosphoinositide 3-Kinase (unknown origin). On the set-up: species or system Homo sapiens.
Data set [2] is described as follows: Inhibition of PDGFR in mouse NIH/3T3 cells assessed as reduction in tyrosine phosphorylation incubated for 2 hrs by SDS-PAGE based immunoblot assay. It counts as cell-based. As to conditions: NIH3T3, 2 h. A general note: A western blot detects proteins with antibodies after separation by electrophoresis.
The target of data set [3] is Mast/stem cell growth factor receptor Kit (Homo sapiens, UniProt P10721). The experiment in a line: Inhibition of c-KIT in human M-07e cells assessed as reduction in […] incubated for 2 hrs followed by KIT ligand stimulation by immunoblotting analysis. It counts as cell-based.
Sequence of Mast/stem cell growth factor receptor Kit (P10721 whole entry): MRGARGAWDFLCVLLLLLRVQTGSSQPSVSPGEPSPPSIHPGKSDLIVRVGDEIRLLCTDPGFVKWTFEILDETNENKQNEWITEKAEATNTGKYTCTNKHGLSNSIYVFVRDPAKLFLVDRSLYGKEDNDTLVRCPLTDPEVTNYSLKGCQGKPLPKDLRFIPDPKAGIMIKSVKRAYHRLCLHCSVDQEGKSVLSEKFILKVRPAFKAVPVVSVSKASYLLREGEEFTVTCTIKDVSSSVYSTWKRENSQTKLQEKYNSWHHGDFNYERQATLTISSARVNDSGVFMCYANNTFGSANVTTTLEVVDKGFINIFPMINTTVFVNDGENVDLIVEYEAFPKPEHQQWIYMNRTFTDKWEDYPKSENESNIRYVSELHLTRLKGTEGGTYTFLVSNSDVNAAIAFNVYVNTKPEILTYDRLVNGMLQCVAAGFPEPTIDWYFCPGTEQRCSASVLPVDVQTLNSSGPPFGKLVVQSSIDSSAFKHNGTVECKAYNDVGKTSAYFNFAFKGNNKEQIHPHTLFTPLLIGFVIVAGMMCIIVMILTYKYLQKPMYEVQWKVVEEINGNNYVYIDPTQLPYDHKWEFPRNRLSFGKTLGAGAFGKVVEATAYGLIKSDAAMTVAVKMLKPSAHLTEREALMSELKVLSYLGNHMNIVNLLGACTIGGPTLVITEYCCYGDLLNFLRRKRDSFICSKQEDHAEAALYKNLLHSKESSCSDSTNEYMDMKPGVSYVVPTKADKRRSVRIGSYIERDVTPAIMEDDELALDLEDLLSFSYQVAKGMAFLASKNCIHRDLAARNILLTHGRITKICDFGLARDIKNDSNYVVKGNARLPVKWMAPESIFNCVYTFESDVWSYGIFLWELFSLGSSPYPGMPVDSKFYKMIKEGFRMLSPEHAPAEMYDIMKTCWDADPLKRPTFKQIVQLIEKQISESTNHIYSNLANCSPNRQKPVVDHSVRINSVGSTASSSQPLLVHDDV
In data set [4] the target is T1, Receptor-type tyrosine-protein kinase FLT3 (Homo sapiens, UniProt P36888).
T1 sequence (P36888 whole entry): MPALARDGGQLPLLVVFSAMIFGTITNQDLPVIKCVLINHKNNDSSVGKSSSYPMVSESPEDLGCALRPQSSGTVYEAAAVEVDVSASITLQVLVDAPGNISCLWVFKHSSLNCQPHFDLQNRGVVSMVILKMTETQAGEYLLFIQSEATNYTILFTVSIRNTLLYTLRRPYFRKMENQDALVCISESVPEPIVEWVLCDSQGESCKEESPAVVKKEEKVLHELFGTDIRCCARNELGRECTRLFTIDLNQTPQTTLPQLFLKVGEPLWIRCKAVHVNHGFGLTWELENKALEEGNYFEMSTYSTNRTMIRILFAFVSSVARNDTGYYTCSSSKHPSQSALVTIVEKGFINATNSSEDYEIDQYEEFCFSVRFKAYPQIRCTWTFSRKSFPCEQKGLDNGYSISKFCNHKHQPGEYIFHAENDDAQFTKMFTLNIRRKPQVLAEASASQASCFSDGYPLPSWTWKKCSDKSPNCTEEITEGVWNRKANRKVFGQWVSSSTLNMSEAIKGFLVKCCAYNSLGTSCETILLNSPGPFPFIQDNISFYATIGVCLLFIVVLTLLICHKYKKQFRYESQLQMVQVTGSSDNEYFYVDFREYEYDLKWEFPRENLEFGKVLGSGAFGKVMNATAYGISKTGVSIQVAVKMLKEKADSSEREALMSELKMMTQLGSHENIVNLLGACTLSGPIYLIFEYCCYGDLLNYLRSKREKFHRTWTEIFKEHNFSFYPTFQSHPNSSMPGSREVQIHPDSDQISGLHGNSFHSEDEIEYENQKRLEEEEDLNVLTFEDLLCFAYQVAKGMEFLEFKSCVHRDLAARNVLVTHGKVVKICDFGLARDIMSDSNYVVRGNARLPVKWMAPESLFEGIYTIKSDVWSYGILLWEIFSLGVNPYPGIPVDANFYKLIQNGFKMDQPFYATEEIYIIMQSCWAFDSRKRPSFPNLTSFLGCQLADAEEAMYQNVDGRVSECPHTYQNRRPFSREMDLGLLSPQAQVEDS
Description: Inhibition of human FLT3 expressed in mouse BAF3 cells assessed as reduction in […] incubated for 2 hrs followed by FLT3 ligand stimulation by immunoblot analysis. The class given is cell-based.

The target of data set [5] is Platelet-derived growth factor receptor beta (Homo sapiens, UniProt P09619). Description: Inhibition of human PDGFR beta.
Sequence of Platelet-derived growth factor receptor beta (P09619 whole entry): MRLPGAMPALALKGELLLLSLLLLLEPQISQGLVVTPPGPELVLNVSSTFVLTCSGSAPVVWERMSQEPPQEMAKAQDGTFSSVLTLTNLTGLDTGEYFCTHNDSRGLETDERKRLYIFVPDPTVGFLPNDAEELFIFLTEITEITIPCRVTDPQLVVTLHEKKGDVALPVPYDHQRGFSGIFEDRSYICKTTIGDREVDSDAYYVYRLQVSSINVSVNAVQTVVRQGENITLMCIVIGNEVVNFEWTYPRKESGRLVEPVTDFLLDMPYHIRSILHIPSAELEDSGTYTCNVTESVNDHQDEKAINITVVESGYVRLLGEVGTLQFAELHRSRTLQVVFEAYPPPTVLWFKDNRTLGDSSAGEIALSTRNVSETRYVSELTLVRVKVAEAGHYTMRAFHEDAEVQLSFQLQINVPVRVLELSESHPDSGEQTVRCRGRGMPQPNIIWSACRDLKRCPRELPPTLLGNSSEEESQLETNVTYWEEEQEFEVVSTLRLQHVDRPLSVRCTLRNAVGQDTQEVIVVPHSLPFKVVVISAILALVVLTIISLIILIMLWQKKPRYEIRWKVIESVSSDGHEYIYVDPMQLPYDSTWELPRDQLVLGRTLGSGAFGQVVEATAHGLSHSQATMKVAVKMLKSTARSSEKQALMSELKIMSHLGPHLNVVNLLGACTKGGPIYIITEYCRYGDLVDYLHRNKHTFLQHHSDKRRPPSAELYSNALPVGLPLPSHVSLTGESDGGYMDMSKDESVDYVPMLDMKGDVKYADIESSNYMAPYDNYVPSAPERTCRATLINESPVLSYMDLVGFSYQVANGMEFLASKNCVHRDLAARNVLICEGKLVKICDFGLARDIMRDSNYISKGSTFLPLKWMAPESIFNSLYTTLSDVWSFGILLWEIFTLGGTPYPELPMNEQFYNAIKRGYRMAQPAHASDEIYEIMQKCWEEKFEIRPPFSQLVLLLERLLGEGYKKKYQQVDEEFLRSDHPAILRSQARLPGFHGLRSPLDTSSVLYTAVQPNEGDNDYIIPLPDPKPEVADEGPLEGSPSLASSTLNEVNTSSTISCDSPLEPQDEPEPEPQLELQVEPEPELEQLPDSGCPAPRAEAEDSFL
Data set [6] addresses Epidermal growth factor receptor (Homo sapiens, UniProt P00533). The experiment in a line: Inhibition of EGFR in human A431 cells incubated for 2 hrs followed by EGF stimulation and measured after 10 mins by immunoblot assay. The class given is cell-based.
Data set [7] addresses Proto-oncogene tyrosine-protein kinase Src (Mus musculus, UniProt P05480). The experiment in a line: Inhibition of SRC in transformed mouse NIH3T3 cells by SDS-PAGE based immunoblot assay. It counts as cell-based.
The target in data set [8] is Insulin-like growth factor 1 receptor (Homo sapiens, UniProt P08069). The experiment in a line: Inhibition of IGFR1 (unknown origin) using poly (Glu,Tyr) 4:1 as substrate.
The nature of data set [9]: Inhibition of VEGFR (unknown origin). On the set-up: species or system Homo sapiens.
The test system of another data set is HCT-15. The experiment in a line: Antiproliferative activity against human HCT15 cells. It counts as functional, cell-based.
For the next data set, the system named is SK-OV-3. The experiment in a line: Antiproliferative activity against human SKOV3 cells. It counts as functional, cell-based.
A further data set deals with BE. The experiment in a line: Antiangiogenic activity in human BE cells after 24 hrs by MTT assay. It counts as functional, cell-based.
A further data set concerns U-87 MG. Description: Antiangiogenic activity in human U87cells after 24 hrs by MTT assay. It counts as functional, cell-based, U-87MG ATCC. Background: Tetrazolium assays rely on reduction of a dye to a coloured formazan, in cell work by metabolically active cells.
A further data set relates to HUVEC. Description: Antiangiogenic activity in HUVEC after 24 hrs by MTT assay. The class given is functional, cell-based. As to conditions: Homo sapiens.
In another data set the test system is MCF7. Description: Cytotoxicity against human MCF7 cells after 48 hrs by MTT assay. It counts as functional, cell-based. The following applies: MCF7, 48 h.
Data set [10] can be described thus: Half life in rat plasma. It counts as ADME, cell-free.
The nature of data set [11]: Half life in guinea pig plasma. It counts as ADME, cell-free, Cavia porcellus.
Data set [12] in a line: Half life in mouse plasma. The class given is ADME, cell-free.
The subject of data set [13] is K562. The experiment in a line: Cytotoxicity against human K562 cells after 72 hrs in presence of 3% O2 by MTT assay. It counts as functional, cell-based. The following applies: K562, 72 h.
In data set [14] the test system is SMMC-7721. The experiment in a line: Cytotoxicity against human SMMC7721 cells after 72 hrs in presence of 3% O2 by MTT assay. It counts as functional, cell-based. As to conditions: SMMC-7721, 72 h.
Data set [15] deals with ECa-109 cell line. The experiment in a line: Cytotoxicity against human ECA109 cells after 72 hrs in presence of 3% O2 by MTT assay. The class given is functional, cell-based. The following applies: ECa-109, 72 h.
The test system of data set [16] is SGC-7901. The experiment in a line: Cytotoxicity against human SGC7901 cells after 72 hrs in presence of 3% O2 by MTT assay. It counts as functional, cell-based. As to conditions: SGC-7901, 72 h.
In data set [17] the test system is PC-3. Description: Cytotoxicity against human PC3 cells after 72 hrs in presence of 3% O2 by MTT assay. The class given is functional, cell-based. As to conditions: PC-3, 72 h.
Data set [18] concerns K562. Description: Cytotoxicity against human K562 cells after 72 hrs in presence of 20% O2 by MTT assay. The class given is functional, cell-based. The following applies: K562, 72 h.
In data set [19] the test system is SMMC-7721. Description: Cytotoxicity against human SMMC7721 cells after 72 hrs in presence of 20% O2 by MTT assay. The class given is functional, cell-based. The following applies: SMMC-7721, 72 h.
Data set [20] has as its system ECa-109 cell line. Description: Cytotoxicity against human ECA109 cells after 72 hrs in presence of 20% O2 by MTT assay. The following applies: ECa-109, 72 h. The class given is functional, cell-based.
The test system of data set [21] is SGC-7901. The experiment in a line: Cytotoxicity against human SGC7901 cells after 72 hrs in presence of 20% O2 by MTT assay. The class given is functional, cell-based. As to conditions: SGC-7901, 72 h.
The subject of data set [22] is PC-3. Description: Cytotoxicity against human PC3 cells after 72 hrs in presence of 20% O2 by MTT assay. As to conditions: PC-3, 72 h. The class given is functional, cell-based.
Data set [23] can be described thus: Acute toxicity in po dosed Wistar rat measured up to 14 days. The class given is organism-based. As to conditions: in vivo.
Data set [24] concerns the target Cyclin-dependent kinase 5/CDK5 activator 1 (Homo sapiens, UniProt Q00535). Description: Inhibition of CDK5/p25 (unknown origin) expressed in Escherichia coli using histone as substrate in presence of [gamma32P]ATP after 10 mins by scintillation counting method.
The nature of data set [25]: Inhibition of Marthasterias glacialis oocyte CDK1/cyclin B using histone as substrate in presence of [gamma32P]ATP after 10 mins by scintillation counting method.

Molecules are shown by their SMILES. pIC50: −log10 of the molar value.

A word on the pIC50: it is −log10 of the IC50, conventionally taken in molar units. By half-life is commonly meant the time in which the quantity being followed falls by half. The term LD50 denotes the dose at which mortality reaches 50%. A high value points to lower toxicity.

Sequence of Cyclin-dependent kinase 5/CDK5 activator 1 (Q00535 whole entry): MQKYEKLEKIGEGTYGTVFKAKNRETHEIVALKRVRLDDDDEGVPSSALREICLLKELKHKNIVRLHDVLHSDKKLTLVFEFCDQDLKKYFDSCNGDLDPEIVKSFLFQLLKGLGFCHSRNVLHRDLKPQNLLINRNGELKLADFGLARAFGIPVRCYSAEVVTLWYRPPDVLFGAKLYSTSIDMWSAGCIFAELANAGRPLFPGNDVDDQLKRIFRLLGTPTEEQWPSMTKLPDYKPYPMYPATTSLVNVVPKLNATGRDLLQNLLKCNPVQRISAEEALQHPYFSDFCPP
Sequence of Cyclin-dependent kinase 5/CDK5 activator 1 (Q15078 whole entry, further chain): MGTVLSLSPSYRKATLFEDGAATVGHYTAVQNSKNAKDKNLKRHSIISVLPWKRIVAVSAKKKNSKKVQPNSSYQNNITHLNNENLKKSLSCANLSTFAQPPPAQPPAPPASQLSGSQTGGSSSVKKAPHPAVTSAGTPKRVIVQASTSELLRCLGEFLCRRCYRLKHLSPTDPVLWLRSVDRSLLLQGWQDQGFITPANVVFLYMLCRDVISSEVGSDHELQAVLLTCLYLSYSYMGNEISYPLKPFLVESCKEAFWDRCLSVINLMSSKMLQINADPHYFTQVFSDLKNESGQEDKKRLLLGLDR
Sequence of Proto-oncogene tyrosine-protein kinase Src (P05480 2-535 limits assumed): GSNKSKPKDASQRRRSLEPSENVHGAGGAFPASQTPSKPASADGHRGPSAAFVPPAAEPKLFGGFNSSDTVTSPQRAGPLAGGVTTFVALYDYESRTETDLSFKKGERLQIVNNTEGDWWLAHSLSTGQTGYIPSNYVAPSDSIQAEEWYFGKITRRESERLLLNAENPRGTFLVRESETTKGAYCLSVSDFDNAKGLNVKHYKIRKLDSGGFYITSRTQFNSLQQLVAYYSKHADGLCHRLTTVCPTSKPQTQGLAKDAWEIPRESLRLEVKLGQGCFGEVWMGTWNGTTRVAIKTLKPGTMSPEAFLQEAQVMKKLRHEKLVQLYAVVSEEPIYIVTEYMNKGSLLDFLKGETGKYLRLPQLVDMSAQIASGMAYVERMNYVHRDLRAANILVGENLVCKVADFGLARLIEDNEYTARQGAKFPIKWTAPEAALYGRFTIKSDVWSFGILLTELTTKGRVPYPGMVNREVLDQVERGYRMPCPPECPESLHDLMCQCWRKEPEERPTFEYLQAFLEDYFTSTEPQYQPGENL
Sequence of Epidermal growth factor receptor (P00533 whole entry): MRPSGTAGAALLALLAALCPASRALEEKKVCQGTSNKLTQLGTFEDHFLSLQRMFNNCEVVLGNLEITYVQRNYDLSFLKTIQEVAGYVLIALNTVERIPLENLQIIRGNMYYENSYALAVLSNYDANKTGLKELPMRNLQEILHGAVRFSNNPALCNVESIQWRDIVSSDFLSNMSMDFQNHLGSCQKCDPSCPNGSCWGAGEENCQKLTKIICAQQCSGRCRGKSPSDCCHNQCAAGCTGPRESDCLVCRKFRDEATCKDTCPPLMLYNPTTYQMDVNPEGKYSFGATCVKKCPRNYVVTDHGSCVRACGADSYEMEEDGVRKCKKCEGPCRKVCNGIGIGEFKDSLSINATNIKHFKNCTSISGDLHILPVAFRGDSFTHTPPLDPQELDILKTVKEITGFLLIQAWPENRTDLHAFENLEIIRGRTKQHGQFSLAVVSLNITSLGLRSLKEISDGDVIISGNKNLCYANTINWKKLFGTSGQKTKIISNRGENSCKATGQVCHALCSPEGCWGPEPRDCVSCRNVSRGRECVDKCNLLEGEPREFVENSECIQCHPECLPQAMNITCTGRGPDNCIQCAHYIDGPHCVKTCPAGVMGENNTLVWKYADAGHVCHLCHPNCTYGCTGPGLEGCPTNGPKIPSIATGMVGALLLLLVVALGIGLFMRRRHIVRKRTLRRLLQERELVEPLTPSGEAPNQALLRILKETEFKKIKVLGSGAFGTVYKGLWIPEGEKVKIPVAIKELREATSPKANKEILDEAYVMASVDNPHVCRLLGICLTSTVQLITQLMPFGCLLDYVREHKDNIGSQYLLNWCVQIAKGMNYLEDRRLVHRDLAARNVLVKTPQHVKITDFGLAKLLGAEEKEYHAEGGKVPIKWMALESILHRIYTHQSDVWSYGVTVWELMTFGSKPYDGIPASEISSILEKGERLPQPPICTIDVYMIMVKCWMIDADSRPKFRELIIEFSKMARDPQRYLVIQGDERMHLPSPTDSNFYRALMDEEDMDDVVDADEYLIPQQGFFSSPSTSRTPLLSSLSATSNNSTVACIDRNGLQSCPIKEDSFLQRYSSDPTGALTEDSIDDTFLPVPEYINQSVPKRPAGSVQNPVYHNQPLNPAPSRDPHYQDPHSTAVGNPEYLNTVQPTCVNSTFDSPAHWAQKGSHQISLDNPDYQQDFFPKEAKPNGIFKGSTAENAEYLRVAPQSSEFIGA

The molecule `O=S(=O)(c1ccccc1)c1nc2ccccc2nc1N1CCOCC1` gave a pIC50 in data set [1] of 7.40.

Regarding `O=S(=O)(c1ccc(Br)cc1)c1nc2ccccc2nc1N1CCC(O)CC1`, in [1], the pIC50 is 7.40.

As for `Cc1nc2cc3nc(-c4cccs4)cnc3cc2n1C`, the pIC50 in [2] was 6.10; in [3], 5.52 to 6.00; in [4], 5.52 to 6.00; in data set [5], 7.05; in [6], under 4.52; in [7] it was under 4.52. Further, the negative logarithm of the IC50 (pIC50) in data set [8] and in [9] was under 4.52 each time.

With `CCCCCNCc1ccc2c(c1)C(=O)c1nccnc1C2=O`, the figures for the negative-log IC50 (pIC50) in the data set with HCT-15 and with SK-OV-3 were 7.30 and 6.40, respectively.

In the case of `Cc1cc2ncc(-c3ccc(O)c(O)c3)nc2cc1C`, the pIC50 is under 4.30 with BE, under 4.30 in the data set on U-87 MG and 4.61 in the data set on HUVEC.

`C[n+]1c2ccccc2nc2c1c1cc(F)ccc1n2CCCC[N+]1(C)CCCCC1`: the pIC50 in the data set on MCF7 was 5.71.

For `C[n+]1c2ccccc2nc2c1c1cc(F)ccc1n2CCCC[N+]1(C)CCCC1`, in the data set with MCF7, the pIC50 is 5.74.

In the case of `C[n+]1c2ccccc2nc2c1c1cc(F)ccc1n2CCCCCC[N+]1(C)CCCCC1`, the pIC50 with MCF7 was 5.80.

On to `Cc1cc2ncc(-c3ccc(OCc4ccccc4)c(O)c3)nc2cc1C`, for which the negative-log IC50 (pIC50) with BE is 4.39; with U-87 MG, 4.80; in the data set with HUVEC it was under 4.00.

As to `CC(=O)Oc1ccc(-c2cnc3cc(C)c(C)cc3n2)cc1O`, the pIC50 in the data set with BE is under 4.30; in the data set on U-87 MG, 4.37; with HUVEC, 4.26.

In [1], `NC(=O)C1CCN(c2nc3ccccc3nc2S(=O)(=O)c2ccc(Br)cc2)CC1` gave a pIC50 of 7.40.

Regarding `COc1ccc(-c2cnc3cc(C)c(C)cc3n2)cc1O`, the pIC50 in the data set on BE was under 4.30; with U-87 MG it was under 4.30; with HUVEC, under 4.00.

`CC(C)OC(=O)N1CCN(c2ncc(-c3ccc4nccnc4c3)cc2C#N)CC1`: the results for the half-life in data set [10], in data set [11] and in data set [12] were 16.7 min, 4.02 min and 61 min, respectively.

As for `CCS(=O)(=O)c1c(-c2ccc(Br)cc2)[n+]([O-])c2cc(C)ccc2[n+]1[O-]`, the pIC50 in the data set with K562 [13] is 6.74; in the data set on SMMC-7721 [14], 5.50; in the data set with ECa-109 cell line [15] it was 5.20; with SGC-7901 [16], 5.05; in the data set on PC-3 [17] it was 5.30; in the data set with K562 [18], over 5.00. In addition, the pIC50 with SMMC-7721 [19], with ECa-109 cell line [20], in the data set on SGC-7901 [21] and in the data set on PC-3 [22] was over 5.00 each time.

Molecule `O=C(c1ccccc1)N1CCN(c2nc3ccccc3nc2S(=O)(=O)c2ccccc2)CC1` gave a negative logarithm of the IC50 (pIC50) in [1] of 7.40.

Regarding `CC(=O)c1c(C)[n+]([O-])c2ccccc2[n+]1[O-]` [MEQUINDOX], in data set [23], the LD50 at 336 h came out at 550 mg/kg.

For `Nc1n[nH]c2nc3ccccc3nc12` [QUINOXALINE1], the negative logarithm of the IC50 (pIC50) in [24] was 6.40; in [25], 6.22.

These data come from ChEMBL document CHEMBL4342402, “An insight into medicinal chemistry of anticancer quinoxalines” (Bioorg Med Chem, 2019).
